From ChEMBL document CHEMBL3639094, “Organic compounds” (2014)

Molecular target: T1, Cholesteryl ester transfer protein (Homo sapiens, UniProt P11597)
T1 sequence (P11597 whole entry): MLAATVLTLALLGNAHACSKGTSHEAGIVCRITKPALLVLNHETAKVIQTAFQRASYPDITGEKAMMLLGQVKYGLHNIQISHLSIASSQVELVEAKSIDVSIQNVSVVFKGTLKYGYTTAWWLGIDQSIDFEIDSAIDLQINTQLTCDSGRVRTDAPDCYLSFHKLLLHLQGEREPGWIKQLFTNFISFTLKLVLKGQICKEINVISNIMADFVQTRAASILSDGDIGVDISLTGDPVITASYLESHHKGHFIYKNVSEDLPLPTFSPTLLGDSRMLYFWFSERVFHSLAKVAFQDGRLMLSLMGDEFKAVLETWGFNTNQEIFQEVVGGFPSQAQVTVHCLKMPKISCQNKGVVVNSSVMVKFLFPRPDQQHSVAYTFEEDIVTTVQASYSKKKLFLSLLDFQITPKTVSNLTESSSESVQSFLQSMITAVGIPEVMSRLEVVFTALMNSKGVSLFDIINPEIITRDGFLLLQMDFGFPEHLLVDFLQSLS
Experiment: In Vitro Assay: CETP Activity Kit (#RB-RPAK) was purchased from Roar Biochemical, Inc. (New York, N.Y., USA). To each well of a 96-well NBS half-area plate (costar #3686), 1.2 ng/well of the donor solution, 1 uL of the acceptor solution and 5 uL compound solution diluted in 100% DMSO were added in a 38 uL of buffer containing 10 mM Tris, 150 mM NaCl and 2 mM EDTA, pH 7.4. Then, the plate was sealed with Themowell Sealers (costar #6524) and followed by a mixing on a plate shaker by MICROPLATE MIXER MPX-96 (IWAKI) at power 3 for 10 sec at room temperature. After 10-min incubation at 37C., the reaction was started by adding 5 uL of rhCETP solution (Cardiovascular Target, New York, N.Y., USA) and mixed on the plate shaker for 10 sec, then the fluorescence intensity at 0 min was measured by a ARVO SX (Perkin Elmerr, USA) at excitation wavelength of 465 nm and emission wavelength of 535 nm. After 120 min-incubation at 37C., fluorescence intensity was measured again.

Row | SMILES | IC50 [nM]
1 | CC[C@@H]1C[C@H](N(Cc2cc(C(F)(F)F)cc(C(F)(F)F)c2)c2ncc(-c3cnn(C)c3)cn2)CN1c1nc(N2CCC(C(=O)O)CC2)ncc1Cl | 77
2 | CC[C@@H]1C[C@H](N(Cc2cc(C(F)(F)F)cc(C(F)(F)F)c2)c2ncc(N3CCOCC3)cn2)CN1c1nc(N2CCC(C(=O)O)CC2)ncc1Cl | 130
3 | CC[C@@H]1C[C@H](N(Cc2cc(C(F)(F)F)cc(C(F)(F)F)c2)c2ncc(-c3cnn(C)c3)cn2)CN1C(=O)OC(C)C | 23
4 | CC[C@@H]1C[C@H](N(Cc2cc(C(F)(F)F)cc(C(F)(F)F)c2)c2ncc(-c3cnn(C)c3)cn2)CN1C(=O)OCC1(C)COC1 | 53
